Data: US7115574B2, “System and method for support legacy operating system booting in a legacy-free system” (priority 2001, dated 2006)

Columns and labels:
[1] = system: N9 clone of murine microglial cells; experiment: Northern blot of TNF-α and iNOS mRNA in activated microglia; assay type: cell-based; conditions: peptide prior to LPS and IFN-γ
Method: Total cellular RNA was extracted from 10^6 adherent microglial cells plated in six-well tissue culture plates (Corning). Electrophoresis of RNA samples (10 μg/lane) was performed in 1% agarose/2.2 M formaldehyde gels and the gels subsequently blotted onto nylon filters by capillary action and baked for 2 h before prehybridization. The cDNA fragments encoding murine TNF-α and mouse macrophage iNOS were ^32P-labeled using the Ready-To-Go DNA Labeling Kit (Pharmacia, Uppsala, Sweden) before hybridization of nylon filters and autoradiography. Blots were subsequently rehybridized with human glyceraldehyde-3-phosphate dehydrogenase (G-3-PDH) cDNA probe as an internal control (Clontech Laboratories, Inc., Palo Alto, Calif.).

[2] = system: N9 clone of murine microglial cells; experiment: TNF-α, IL-6 and NO2− production by LPS+IFN-γ activated microglia; assay type: cell-based
Method: See Delgado, R., Carlin, A., Alraghi, L., Demitri, M., Meda, L., Galimberti, D., Pierluigi, B., Lipton, J. M., Catania, A., Melanocortin Peptides Inhibit Production of Proinflammatory Cytokines and Nitric Oxide by Activated Microglia, 63 J. of Leukocyte Biol. 740 (1998). […] The N9 clone of murine microglial cells was obtained by immortalization of embryonic brain cultures with the 3RV retrovirus carrying an activated v-myconcogene. N9 cells were cultured in T-75-cm^2 culture flasks (Coming, Cambridge, Mass.) and maintained at 37° C. in a humidified incubator under 5% CO2 atmosphere in RPMI 1640 supplemented with 2 mM L-glutamine, 50 U/mL penicillin G, 50 μg/mL streptomycin sulfate (GIBCO-BBL, Paisley, UK), and 10% heat-inactivated fetal bovine serum (FBS, Hyclone Lab, Inc., Logan, Utah) until experiments were performed. Cells were used between the first and the tenth passage.
Sub-confluent microglial cells were washed twice with phosphate-buffered saline (PBS) and incubated with trypsin 0.025% and ethylenediaminetetraacetate (EDTA) 0.02% without calcium and magnesium for 3 min. at 37° C. to detach the cells from the culture flask. Cells were then resuspended in medium and incubated in 24-well tissue-culture plates at a concentration of 2×10^5 cells/mL for 16 h in a humidified incubator (37° C., 5% CO2). Growth medium was removed and cell monolayers were stimulated with 10 ng/mL lipopolysaccharide (LPS, from Escherichia coli 055:B5, Sigma Chemical Co., St. Louis, Mo.) plus 1 U/ml, murine IFN-γ (Sigma). […] Although production of TNF-α and NO was reduced to even much lower concentrations of the peptides, concentrations in the micromolar range had the most profound and consistent inhibitory effects. […] Cell-free supernatants were harvested after 24 h incubation and assayed for TNF-α, IL-6 and NO2. Viability of cells was assessed by trypan blue exclusion for each experimental condition: it was consistently >98%. Dexamethasone (Sigma) and N-monomethyl-L-arginine (L-NMMA: 100 μM, Cayman Chemical, Ann Arbor, Mich.) were used as positive controls for TNF-α and NO inhibition, respectively. Tests were repeated in at least three independent experiments and assays were performed in triplicate.
TNF-α bioactivity was measured in supernatants of cell cultures by standard cytotoxicity assay using L929 cells and recombinant human TNF-α (Sigma) as standard. The detection limit of the bioassay was 20 pg/mL. IL-6 was measured using a commercial murine enzyme-linked immunosorbent assay (ELISA: RPN 2714, Amersham, Little Chalfont, UK).
NO is rapidly oxidized to nitrite in culture medium, and nitrite (NO2^−) concentration is an indicator of NO production. Cell-free culture supernatants were mixed with equal amounts of Griess reagent (1% sulfanilamide, 0.1% naphtylethylenediamide in 2.5% phosphoric acid) in wells of 96-well ELISA plates. Samples were incubated at room temperature for 10 min and absorbance was measured at 540 nm with the use of a microplate reader. Nitrite […] concentrations were calculated using a sodium nitrite standard curve.
Effects of melanocortin peptides on cytokine and NO production were evaluated by repeated measures analysis of variance followed by Dunnet's test for specific comparisons. Probability values less than 0.05 were considered significant.

[3] = system: C. albicans; experiment: C. albicans colony forming units (candidacidal activity); assay type: cell-based; conditions: FIG. 2
Method: C. albicans (clinical isolate) was obtained from the collection of the Department of Microbiology, Ospedale Maggiore di Milano and maintained on Sabouraud's agar slants and periodically transferred to Sabouraud's agar plates and incubated for 48 hours at 28° C. To prepare a stationary growth phase yeast, a colony was taken from the agar plate and transferred into 30 ml Sabouraud-dextrose broth and incubated for 72 hours at 32° C. Cells were centrifuged and suspended in Hank's balanced salt solution (“HBSS”) to the desired concentration. Viability, determined by the exclusion of 0.01% methylene blue, remained >98%.
C. albicans (1×10^6/ml in HBSS) was incubated in the presence or absence or α-MSH(1-13) (SEQ ID NO: 3) or (11-13) (SEQ ID NO: 1) at concentrations in the range of 10^−15 M to 10^−6 M for 2 hours at 37° C. Cells were then washed in cold distilled water and diluted with HBSS to a concentration of 100 organisms/ml. One-ml aliquots were dispensed on blood agar plates and incubated for 48 hours at 37° C. Organism viability was estimated from the number of colonies formed.
In subsequent experiments using familiar procedures we compared activity of α-MSH(4-10) (SEQ ID NO: 10), (6-13) (SEQ ID NO: 2), (11-13) (SEQ ID NO: 1), ACTH(1-39) (SEQ ID NO: 9), (18-39) (SEQ ID NO: 11) and fluconazole, the latter an established antifungal agent. Melanocortin peptides and fluconazole were tested in concentrations of 10^−6 M to 10^−4 M. There were at least six replicates for each concentration of peptide. […]

[4] = system: C. albicans; experiment: Horse serum-induced germ tube formation (germination) of C. albicans; assay type: cell-based; conditions: 10^−6M, 60 minutes at 37° C. after horse serum induction
Method: C. albicans from stationary phase cultures were washed twice with distilled water and suspended in HBSS to a final concentration of 2×10^6/ml. Hyphal growth was induced by addition of 10% inactivated horse serum (GIBCO/BRL, Great Britain) to yeast incubated for 45 minutes at 37° C. with continuous shaking. Horse serum was removed by washing cells twice with HBSS and incubation was continued for 60 minutes at 37° C. in the presence of α-MSH(1-13) (SEQ ID NO: 3), (6-13) (SEQ ID NO: 2) or (11-13) (SEQ ID NO: 1) at a concentration of 10^−6M with continuous shaking. The percentage of filamentous cells was evaluated under a light microscope with the aid of hemocytometer. Experiments were run in triplicate and at least 200 cells were scored. Photomicrographs were taken with a MC100 camera attached to an Axioskop Zeiss microscope.

[5] = Lipton and Catania, Immunol. Today 1997; cited from earlier work
[6] = microglia stimulated with LPS+IFN-γ for 24 hr, micromolar concentrations

## ACTH(1-24): melanocortin peptide ACTH(1-24) (Sigma) (SYSMEHFRWGKPVGKKRRPVKVYP; Designed polypeptide with anti-inflammatory, anti-microbial, anti-fungal, and anti-viral properties.) [reference compound]
[1]
  transcription levels (mRNA) for TNF-α and iNOS: inhibition of mRNA transcription
[2]; LPS+IFN-γ stimulated microglia, 1-100 μM tested
  concentration most effective at inhibiting cytokine formation: 10 to 25 µM
[2]; [6]
  reduction of production of IL-6: 65%
  reduction of production of NO2^−: 41%
  reduction of production of TNF-α: 38%

## HFRWGKPV (Ac-HFRWGKPV-NH2) [α-MSH(6-13), octapeptide fragment of α-MSH]
[3]; 10^−4M melanocortin peptides
  relative potency in reducing C. albicans viability: most effective
[4]
  reduction in the number of filamentous cells / inhibition of germ tube formation: approximately 50%

## α-MSH(4-10): core α-MSH sequence (4-10) [reference compound]
[3]; 10^−4M peptide as printed
  inhibition of CFU: approximately 50%
[5]
  toxicity: very low toxicity
